Test results: patent US12590953B2, “Methods for screening cereblon modifying compounds” (CELGENE CORPORATION, priority 2018, dated 2026)
Entries after “also recorded” stand apart in the source; their conditions may differ.

Experiments:
[1] = molecular target: T1, endogenous SALL4 in NCCIT, NETRA-2 c1.D1 and AN3-CA cancer cell lines (Homo sapiens, UniProt Q96SW2+Q9UJQ4); experiment: Degradation of endogenous SALL4 in cancer cell lines, western blot; format: cell-based; settings: 16 hour treatment; anti-SALL4 western blot
T1 construct: endogenous in cells; host or cells: NCCIT, NETRA-2 c1.D1 and AN3-CA cancer cell lines

[2] = molecular target: T2, mouse SALL4 zinc fingers / human cereblon (Homo sapiens, UniProt Q96SW2); experiment: In vitro ubiquitination of mouse SALL4 zinc fingers by human cereblon; format: biochemical; settings: thalidomide vs DMSO
T2 construct: Human cereblon-DDB1 (cereblon amino acids 40-442 and full length DDB1); the mouse SALL4 zinc finger amino acids 410-438 (orthologous to human ZF2); ZZ-domain-6xHis-thrombin site (N, cleaved yes); made in house; host or cells: SF9 insect cells (cereblon-DDB1, Cul4A-Rbx1); E. coli BL21 (DE3) Star (MBP-zinc finger)
T2 sequence (Q96SW2 40-442): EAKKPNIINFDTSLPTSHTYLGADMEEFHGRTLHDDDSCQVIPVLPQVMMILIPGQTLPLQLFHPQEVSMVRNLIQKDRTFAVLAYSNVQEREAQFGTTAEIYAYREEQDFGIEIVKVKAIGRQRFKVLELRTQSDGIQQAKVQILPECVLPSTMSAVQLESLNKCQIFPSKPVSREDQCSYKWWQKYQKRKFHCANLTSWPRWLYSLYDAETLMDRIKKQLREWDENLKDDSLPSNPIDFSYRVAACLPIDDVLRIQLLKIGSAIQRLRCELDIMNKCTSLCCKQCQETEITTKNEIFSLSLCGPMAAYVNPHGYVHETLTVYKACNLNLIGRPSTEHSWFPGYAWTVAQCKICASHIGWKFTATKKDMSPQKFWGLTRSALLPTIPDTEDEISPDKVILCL
T2 sequence (Q16531 whole entry partner, the tested form may be a part): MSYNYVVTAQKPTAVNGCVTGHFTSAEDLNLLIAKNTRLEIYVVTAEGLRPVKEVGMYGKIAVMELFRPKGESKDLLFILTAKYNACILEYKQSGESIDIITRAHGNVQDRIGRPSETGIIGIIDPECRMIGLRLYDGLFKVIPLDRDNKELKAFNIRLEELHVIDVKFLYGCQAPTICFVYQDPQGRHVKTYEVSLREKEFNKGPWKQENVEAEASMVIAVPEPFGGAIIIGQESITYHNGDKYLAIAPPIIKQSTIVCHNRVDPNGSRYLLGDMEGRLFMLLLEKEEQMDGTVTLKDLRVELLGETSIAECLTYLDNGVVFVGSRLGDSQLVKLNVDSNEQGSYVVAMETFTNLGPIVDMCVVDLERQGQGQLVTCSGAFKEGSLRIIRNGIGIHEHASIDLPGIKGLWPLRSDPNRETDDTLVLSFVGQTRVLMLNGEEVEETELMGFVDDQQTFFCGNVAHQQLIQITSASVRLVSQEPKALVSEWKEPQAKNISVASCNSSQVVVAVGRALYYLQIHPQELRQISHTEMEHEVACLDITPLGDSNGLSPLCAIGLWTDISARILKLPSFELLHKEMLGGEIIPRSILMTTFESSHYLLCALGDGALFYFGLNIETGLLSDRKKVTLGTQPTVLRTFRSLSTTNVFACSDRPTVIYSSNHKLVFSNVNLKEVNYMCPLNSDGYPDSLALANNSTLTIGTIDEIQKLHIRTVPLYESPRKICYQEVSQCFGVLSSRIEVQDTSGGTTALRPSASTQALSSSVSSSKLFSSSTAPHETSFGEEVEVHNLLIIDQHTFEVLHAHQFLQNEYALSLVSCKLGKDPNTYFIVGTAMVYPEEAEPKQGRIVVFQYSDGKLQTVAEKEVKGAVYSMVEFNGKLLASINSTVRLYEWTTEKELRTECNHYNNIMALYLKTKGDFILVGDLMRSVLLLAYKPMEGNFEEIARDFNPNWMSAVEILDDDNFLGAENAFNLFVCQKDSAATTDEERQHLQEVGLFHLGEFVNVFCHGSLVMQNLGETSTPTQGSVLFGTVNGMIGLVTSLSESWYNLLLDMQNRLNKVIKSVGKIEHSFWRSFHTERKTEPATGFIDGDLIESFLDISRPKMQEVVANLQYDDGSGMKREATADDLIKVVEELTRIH
Experimental: (§1) Full length human cereblon, full length mouse cereblon, and full length rabbit cereblon were co-expressed with full length human DDB1 in SF9 insect cells in ESF921 medium in the presence of 50 uM zinc acetate. Cells were resuspended in buffer containing 50 mM Tris-HCl pH 7.5, 500 mM NaCl, 10 mM imidazole, 10% glycerol, 2 mM TCEP, 1× Protease Inhibitor Cocktail (San Diego Bioscience), and 40,000 U Benzonase (Novagen), and sonicated for 30 s. Lysate was clarified by high speed spin at 30,000 rpm for 30 minutes, and clarified lysate was incubated with Ni-NTA affinity resin (Qiagen) for 1 hour. Complex was eluted with buffer containing 500 mM imidazole, and the ZZ-domain-6×His tag removed by thrombin cleavage (Enzyme Research) overnight, combined with dialysis in 10 mM imidazole buffer. Cleaved eluate was incubated with Ni-NTA affinity resin (Qiagen), and the flow-through diluted to 200 mM NaCl for further purification over a Sephacryl S-400 16/60 column (GE Healthcare) in buffer containing 10 mM HEPES pH 7.0, 240 mM NaCl, and 3 mM TECP.
(§2) Purified E1, E2, ubiquitin, Cul4A-Rbx1, cereblon-DDB1, and GSPT1 proteins were used to reconstitute the ubiquitination of MBP-fused WT and mutant proteins in vitro. Substrate proteins purified by maltose affinity resin (NEB) were incubated at an approximate concentration of 30 uM. […]

[3] = molecular target: T3, mouse SALL4 zinc fingers / human cereblon (UniProt Q8BX22+Q96SW2); experiment: as above; format: biochemical; settings: with thalidomide
T3 construct: Human cereblon-DDB1 (cereblon amino acids 40-442 and full length DDB1); the mouse SALL4 zinc finger amino acids 410-438 (orthologous to human ZF2); ZZ-domain-6xHis-thrombin site (N, cleaved yes); made in house; host or cells: SF9 insect cells (cereblon-DDB1, Cul4A-Rbx1); E. coli BL21 (DE3) Star (MBP-zinc finger)
T3 sequence (Q96SW2 40-442): as the sequence (Q96SW2 40-442) above
T3 sequence (Q16531 whole entry partner, the tested form may be a part): as the sequence (Q16531 whole entry partner, the tested form may be a part) above
T3 sequence (Q8BX22 410-438): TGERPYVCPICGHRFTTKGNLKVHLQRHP
Experimental: as §1, §2

Ikaros = Ikaros (Homo sapiens, UniProt Q13422+Q96SW2); experiment: Degradation of Ikaros (data not shown)
Ikaros, sequence (Q13422 whole entry, species assumed): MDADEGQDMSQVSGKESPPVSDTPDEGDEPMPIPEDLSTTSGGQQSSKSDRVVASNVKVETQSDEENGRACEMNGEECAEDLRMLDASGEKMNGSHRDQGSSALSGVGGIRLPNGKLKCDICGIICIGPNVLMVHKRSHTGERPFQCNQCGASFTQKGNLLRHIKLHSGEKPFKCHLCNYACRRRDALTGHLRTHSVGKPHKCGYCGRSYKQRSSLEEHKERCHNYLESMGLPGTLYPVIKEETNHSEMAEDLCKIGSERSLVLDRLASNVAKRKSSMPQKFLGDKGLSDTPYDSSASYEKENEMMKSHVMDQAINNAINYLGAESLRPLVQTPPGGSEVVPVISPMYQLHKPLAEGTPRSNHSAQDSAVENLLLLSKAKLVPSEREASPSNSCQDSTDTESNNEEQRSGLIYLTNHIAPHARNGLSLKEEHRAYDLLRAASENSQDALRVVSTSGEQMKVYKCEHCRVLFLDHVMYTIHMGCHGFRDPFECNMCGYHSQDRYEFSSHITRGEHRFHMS
Ikaros, sequence (Q96SW2 whole entry, species assumed): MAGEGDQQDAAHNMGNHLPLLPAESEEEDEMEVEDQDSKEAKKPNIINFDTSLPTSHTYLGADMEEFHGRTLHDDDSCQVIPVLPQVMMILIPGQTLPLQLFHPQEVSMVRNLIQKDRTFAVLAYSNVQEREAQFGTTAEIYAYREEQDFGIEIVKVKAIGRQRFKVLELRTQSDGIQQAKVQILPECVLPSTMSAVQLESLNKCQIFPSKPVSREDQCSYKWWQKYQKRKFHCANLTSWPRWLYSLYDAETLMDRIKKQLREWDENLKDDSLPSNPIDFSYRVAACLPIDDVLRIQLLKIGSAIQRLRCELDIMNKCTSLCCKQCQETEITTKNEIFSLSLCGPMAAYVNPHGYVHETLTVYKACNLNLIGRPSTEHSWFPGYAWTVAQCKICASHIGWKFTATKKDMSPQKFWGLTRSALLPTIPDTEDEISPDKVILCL
Ikaros, sequence (Q16531 whole entry partner, species assumed): as the sequence (Q16531 whole entry partner, the tested form may be a part) above

O=C1CCC(N2C(=O)c3ccccc3C2=O)C(=O)N1 (stereo not shown) [thalidomide]
Degradation of endogenous SALL4 [1]: Significant compound-dependent degradation of endogenous SALL4 was observed
Ubiquitination of all 4 glycine-motif mouse SALL4 zinc fingers by human cereblon [2]: none of them were efficiently ubiquitinated by either mouse cereblon or human cereblon; also recorded: not efficiently ubiquitinated by human or mouse cereblon
Ubiquitination of mouse SALL4 zinc finger (orthologous to human ZF2) by human cereblon [3]: not able to ubiquitinate the mouse SALL4 zinc finger; also recorded: not efficiently ubiquitinated by mouse or human cereblon
Triggering the degradation of Ikaros (Ikaros): only moderately active in triggering the degradation of Ikaros
